{"source": "patent US8034948B2", "about": "“Method for resolving omeprazole salts” (Universite de Rouen, priority 2007, dated 2011)", "key": {"[1]": {"assay": "Stability of the potassium salt solvates (ambient atmosphere / alcoholic medium with excess potassium hydroxide)", "format": "physicochemical"}, "Solubility measurements": {"assay": "Solubility measurements", "format": "physicochemical", "method": "The solubility measurements are calculated, for a given temperature and for a given excess of potassium hydroxide, in the following way: [formula]"}, "[2]": {"details": "in an ethanol-water mixture in which ethanol predominates, with an excess of potassium hydroxide"}, "[3]": {"details": "excess of potassium hydroxide in alcohol/alcohol or alcohol/water solvent mixtures or pure alcohol"}}, "note": "Counter-ions that a name gives are not always drawn.", "data": [{"compound": "COc1ccc2[nH]c([S+]([O-])Cc3ncc(C)c(OC)c3C)nc2c1", "note": "(racemic) [ethanol solvates of the potassium salt of racemic omeprazole]", "values": [{"measurement": "Stability", "setting": "[1]; [2]", "result": "stable"}]}, {"compound": "COc1ccc2[nH]c([S+]([O-])Cc3ncc(C)c(OC)c3C)nc2c1", "note": "(racemic) [racemic mixture]", "values": [{"measurement": "Solubility", "setting": "Solubility measurements; absolute ethanol, 1.2 molar equivalents of potassium hydroxide, 26 °C", "result": 1.3, "unit": "% by weight"}, {"measurement": "Solubility", "setting": "Solubility measurements; absolute ethanol, 1.2 molar equivalents of potassium hydroxide, 30 °C", "result": 1.7, "unit": "% by weight"}, {"measurement": "Solubility", "setting": "Solubility measurements; absolute ethanol, 1.2 molar equivalents of potassium hydroxide, 33 °C", "result": 2.2, "unit": "% by weight"}, {"measurement": "Solubility", "setting": "Solubility measurements; ethanol/water (90/10% weight/weight), 1.2 molar equivalents of potassium hydroxide, 30 °C", "result": 25, "unit": "% by weight"}, {"measurement": "Solubility (coordinates of the point L)", "setting": "Solubility measurements; ethanol/water (93/7% weight/weight), 1.2 molar equivalents of potassium hydroxide, 34.4 °C", "result": 20, "unit": "% by weight"}, {"measurement": "Solubility", "setting": "Solubility measurements; ethanol/water azeotropic mixture, 1.2 molar equivalents of potassium hydroxide, 29 °C", "result": 8.7, "unit": "% by weight"}, {"measurement": "Solubility", "setting": "Solubility measurements; ethanol/water azeotropic mixture, 1.2 molar equivalents of potassium hydroxide, 31 °C", "result": 9.1, "unit": "% by weight"}, {"measurement": "Solubility", "setting": "Solubility measurements; ethanol/water azeotropic mixture, 1.2 molar equivalents of potassium hydroxide, 35 °C", "result": 13.7, "unit": "% by weight"}, {"measurement": "Solubility of the salt (in words)", "setting": "Solubility measurements; in ethanol (Example 7)", "result": "low"}, {"measurement": "Stability", "setting": "[1]; [3]", "result": "stable"}]}, {"compound": "COc1ccc2nc([S@@+]([O-])Cc3ncc(C)c(OC)c3C)[nH]c2c1", "note": "[(S)-omeprazole, 5-methoxy-2-[(S)-[(4-methoxy-3,5-dimethyl-2-pyridinyl)methyl]sulphinyl]-1H-benzimidazole]", "values": [{"measurement": "Stability", "setting": "[1]; [2]", "result": "stable"}]}, {"compound": "COc1ccc2nc([S@@+]([O-])Cc3ncc(C)c(OC)c3C)[nH]c2c1", "note": "[pure enantiomer (S)-omeprazole, 5-methoxy-2-[(S)-[(4-methoxy-3,5-dimethyl-2-pyridinyl)methyl]sulphinyl]-1H-benzimidazole]", "values": [{"measurement": "Stability", "setting": "[1]; [3]", "result": "stable"}]}]}
